The values below come from patent publication US5760000A (University Technologies International,Inc., priority 1994, dated 1998).

“Also recorded” adds a separate entry of the source. Like-named read-outs stand apart in the source and are kept apart here. Non-standard residues stand in square brackets, D forms with d. Residues, ends and D or L forms follow the SMILES beside them. pGlu = O=C1CC[C@@H](C(=O)O)N1

For experiment [1], the target named is GnRH receptor (HepG2 membrane preparation). In words: GnRH in vitro binding to HepG2 membrane preparation (radioreceptor assay). The arrangement: species or system human. The note with it: for Kd: 95% confidence interval in parentheses; for Displacement / competitive inhibition of labeled [D-Lys6]-GnRH binding to HepG2 membrane preparation: unlabeled non-GnRH peptides, FIG. 2B. As to the method: (§1) Cells were grown to confluence as previously described and harvested from the flasks by using a rubber policeman. The cells were washed in normal assay buffer (([…] Tris[hydroxymethyl] aminomethane[Tris]-HCl), containing 1 mM dithiothreitol and 0.5% BSA [fraction-V] (pH 7.6)) and precipitated by centrifugation at 500g for 5 minutes at 4° C.
(§2) The cleaned cells were homogenized in 50 ml of freshly prepared ice cold 25 mM sucrose in assay buffer containing 1 mM Phenylmethanesulphonyl fluoride and 5 mM Ethylenediaminetetraacetic acid, using a glass TEFLON (polytetra-fluoroethylene) homogenizer, followed by centrifugation at 100 ×g for 5 minutes (4° C.). The supernatant was further centrifuged at 17,000×g for 30 minutes at 4° C., and the pellet (crude membrane preparation) washed briefly and resuspended in the assay buffer (approximately 40-50 μg membrane protein or approximately 1 x 10^6 cell equivalent per 100 μl).
(§3) For protein determination, aliquots of crude membrane preparations were washed twice with double distilled water by centrifugation (25,000 ×g) and assayed for protein content, using BSA as the standard. The binding assay was carried out at 4° C.
(§4) The displacement curves were fitted for both single and two classes of binding sites by computer calculated lines, as described.
(§5) The potency of various GnRH-related peptides in terms of binding (equilibrium dissociation constant; kd) and growth suppression activity in the human hepatocarcinoma derived cell line HepG2 was studied. […] Data analysis was performed as described.
(§6) Homologous displacement of GnRH-related peptides in membrane homogenates prepared from HepG2 cells and non-cancerous postmortem human liver tissue was studied. Values (mean ± SEM) represent specific binding [B/T, bound over total, in %] determined by subtraction of non-saturable binding in the presence of excess peptides (10^-5 M). Results were obtained from 5 to 7 separated experiments, each carried out in triplicate. The binding data were analyzed by computerized Scatchard analysis (LIGAND) according to Munson and Rodbard.

Experiment [2] concerns the target GnRH binding sites (normal rat liver). Kind of experiment: GnRH in vitro binding to normal rat liver membrane preparation. The note with it: 95% confidence interval in parentheses, read-out: Receptor Binding Activity (Kd, nM) Normal Rat Liver. As to the method:
as §1, §2
(§7) A similar protocol was used to prepare the membrane from fresh rat and frozen human postmortem liver. In all experiments the final membrane preparation was used in the radioreceptor assay within 45 minutes.
as §3, §4

In a further experiment the test system is HepG2 cells. In words: HepG2 cell proliferation (cell counting). Format: cell-based. The note with it: for Effect on HepG2 cell proliferation: single administration at 10^-7 M, six days in culture. As for the experimental part: HepG2 or HuH-7 cells were maintained in 75-cm^2 flasks at 37° C. under a humidified atmosphere of 5% CO2 in modified Minimum Essential Medium (Gibco-BRL) supplemented with 10% fetal bovine serum, 200mM 1-Glutamine (1%), Penicillin (1000 IU/ml), streptomycin (100 μg/ml) and sodium bicarbonate (0.15%). Cells grown to confluence were harvested following mild trypsinization and wash (twice by slow centrifugation; 400 g for 10 minutes) in normal culture medium.
Approximately 50,000 cells in 1.0 ml culture media were plated in 24 deep well plates (Flacon). This time was considered day -1. Cells were allowed to grow for one day. The growing cells were then treated with various hormones (at day 0) prepared aseptically in culture media immediately prior to addition. The final volume was maintained at 1 ml. The plates were then incubated at 37° C. for a period of 4 to 6 days, as described above.
Cells in each well were harvested by removal of culture media and incubation with 0.5 ml 0.25% trypsin and 1.75 mM EDTA for 30 minutes at 37° C. Cells were then transferred into 1.5 ml microfuge tubes and centrifuged at 100g for 10 minutes. The supernatant was removed and the pellet was resuspended in a final volume of 200 μl of culture media containing 10% trypan blue.
Cells were then counted using a hemocytometer. The average cell mortality was less than 5.0% and was not different among different treatment groups. Each value represents the mean and standard error of several experiments (n>3), each carried out in quadruplicate incubations at each time point and hormone concentration.
as §5
The effect of GnRH-related peptides on the proliferation of the human hepatoma derived cell line HepG2 was studied. Values (mean ± SEM) represent the percent change with respect to initial cell number at day 0 over a period of six days in culture.
The dose response curves were analyzed by a computerized, four parameter curve fitting program (ALLFIT) as described. The result of time-related response on cell proliferation was analyzed using a two-way ANOVA with multiple comparison means of using computerized statistical package (SYSTAT).

In experiment [3] the test system is GnRH binding sites (normal human liver). Kind of experiment: GnRH in vitro binding to non-cancerous postmortem human liver membrane preparation. The note with it: for Displacement / competitive inhibition of labeled [D-Lys6]-GnRH binding to non-cancerous human liver membrane preparation: unlabeled non-GnRH peptides, FIG. 2D; for Kd: 95% confidence interval in parentheses, read-out: Receptor Binding Activity (Kd, nM) Normal Human Liver. As for the experimental part:
as §1, §2, §7, §3, §4, §6

Experiment [4] concerns the target T1, normal pituitary cell GnRH receptors (Rattus norvegicus, UniProt P30969).
T1 construct: normal pituitary cell GnRH receptors; from tissue; host or cells: normal rat pituitary
T1 sequence (P30969 1-327): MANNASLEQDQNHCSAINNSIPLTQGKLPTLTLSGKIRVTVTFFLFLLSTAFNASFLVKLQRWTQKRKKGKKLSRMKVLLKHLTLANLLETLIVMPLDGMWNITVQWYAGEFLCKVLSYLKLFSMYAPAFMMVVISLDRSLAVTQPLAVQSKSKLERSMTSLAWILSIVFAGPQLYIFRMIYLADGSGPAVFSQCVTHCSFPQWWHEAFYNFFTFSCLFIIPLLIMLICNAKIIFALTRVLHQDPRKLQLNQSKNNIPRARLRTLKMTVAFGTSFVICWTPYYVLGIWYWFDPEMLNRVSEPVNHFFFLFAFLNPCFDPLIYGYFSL
In words: GnRH binding, normal rat pituitary. The note with it: 95% confidence interval in parentheses, read-out: Receptor Binding Activity (Kd, nM) Normal Rat. As to the method: as §4
Data analysis was performed as described.

For the next experiment, the system named is mammalian pituitary. The note with it: reference [11]; cited from earlier work.
[5] abbreviates: Labeled ligand 125I-[D-Lys6]-GnRH, 4° C.
[6] abbreviates: Labeled ligand 125I-[D-Lys6]-GnRH.
[7] abbreviates: Labeled ligand 125I-[D-Arg6]-sGnRH-A.

The Kd is the constant that tells how readily two partners part at equilibrium. For the molecule `CC(C)C[C@H](NC(=O)CNC(=O)[C@H](Cc1ccc(O)cc1)NC(=O)[C@H](CO)NC(=O)[C@H](Cc1c[nH]c2ccccc12)NC(=O)[C@H](Cc1c[nH]cn1)NC(=O)[C@@H]1CCC(=O)N1)C(=O)N[C@@H](CCCNC(=N)N)C(=O)N1CCC[C@H]1C(=O)NCC(N)=O` [GnRH, reference compound], the Kd in experiment [1] (setting [5]) turned out to be 9.17 nM; in experiment [2] (setting [6]), 384 nM. Also, the “Effect on HepG2 cell proliferation” value in the experiment with HepG2 cells is listed as “suppressed”.
On to `NC(=O)[C@@H]1CCCN1C(=O)[C@H](Cc1cnc[nH]1)NC(=O)[C@@H]1CCC(=O)N1` [TRH, Thyrotropin releasing hormone], for which the “Displacement / competitive inhibition of labeled [D-Lys6]-GnRH binding to HepG2 membrane preparation” value in experiment [1] was “did not show competitive inhibition”; in experiment [1] (listed as Thyrotropin releasing hormone (TRH)), “did not displace”. In addition, the “Displacement / competitive inhibition of labeled [D-Lys6]-GnRH binding to non-cancerous human liver membrane preparation” value in experiment [3] is on record as “did not displace”.
With `CCNC(=O)[C@@H]1CCCN1C(=O)[C@H](CC(C)C)NC(=O)[C@H](Cc1c[nH]c2ccccc12)NC(=O)[C@@H](CCCNC(=N)N)NC(=O)[C@H](Cc1ccc(O)cc1)NC(=O)[C@H](CO)NC(=O)[C@H](Cc1c[nH]c2ccccc12)NC(=O)[C@H](Cc1c[nH]cn1)NC(=O)[C@@H]1CCC(=O)N1` [[D-Arg^6]-sGnRH-A, pGlu-His-Trp-Ser-Tyr-DArg-Trp-Leu-Pro-N-ethylamide] ([pGlu]HWSY[dR]WLP-NHEt), the Kd in experiment [1] (setting [7]) was 7.09 nM; in experiment [4] (setting [7]), 0.334 nM; in experiment [2] (setting [7]) it was 833 nM; in experiment [3] (setting [7]), 3850 nM.
With `CC(C)C[C@H](NC(=O)CNC(=O)[C@H](Cc1c[nH]cn1)NC(=O)[C@H](CO)NC(=O)[C@H](Cc1c[nH]c2ccccc12)NC(=O)[C@H](Cc1c[nH]cn1)NC(=O)[C@@H]1CCC(=O)N1)C(=O)N[C@@H](CC(N)=O)C(=O)N1CCC[C@H]1C(=O)NCC(N)=O` [cfGnRH] ([pGlu]HWSHGLNPG-NH2), the values for the Kd in experiment [1] (setting [5]), in experiment [4] (setting [6]) and in experiment [2] (setting [6]) were 17.9 nM, 140 nM and 8330 nM, respectively. Further, the “Suppression of HepG2 growth ED50” value in the experiment with HepG2 cells is 2.29 nM. The “Effect on HepG2 cell proliferation” value with HepG2 cells is listed as “suppressed”.
Take `CC(C)C[C@H](NC(=O)[C@H](CO)NC(=O)[C@H](Cc1ccc(O)cc1)NC(=O)[C@H](Cc1c[nH]cn1)NC(=O)[C@@H]1CCC(=O)N1)C(=O)N[C@@H](CCC(=O)O)C(=O)N[C@@H](Cc1c[nH]c2ccccc12)C(=O)N[C@@H](CCCCN)C(=O)N1CCC[C@H]1C(=O)NCC(N)=O` [lGnRH] ([pGlu]HYSLEWKPG-NH2): the Kd in experiment [1] (setting [5]) was determined as 66.6 nM; in experiment [4] (setting [6]), 2 nM; in experiment [2] (setting [6]) it was 8330 nM; in experiment [3] (setting [6]), 6660 nM. In addition, the “Gonadotropin release activity in rat and sheep pituitary” value in the experiment on mammalian pituitary is recorded as “little”. In addition, the “Potency in releasing gonadotropin from mammalian pituitary compared to mammalian based GnRH analogs” value in the experiment on mammalian pituitary is “significantly lower potency”. The “Suppression of HepG2 growth ED50” value in the experiment on HepG2 cells came out at 1.5 nM. In addition, the “Effect on HepG2 cell proliferation” value with HepG2 cells is reported as “suppressed”.
Turning to `CC(C)C[C@H](NC(=O)[C@H](Cc1c[nH]c2ccccc12)NC(=O)CNC(=O)[C@H](Cc1ccc(O)cc1)NC(=O)[C@H](CO)NC(=O)[C@H](Cc1c[nH]c2ccccc12)NC(=O)[C@H](Cc1c[nH]cn1)NC(=O)[C@@H]1CCC(=O)N1)C(=O)N1CCC[C@H]1C(=O)NCC(N)=O` [sGnRH] ([pGlu]HWSYGWLPG-NH2), in the experiment with mammalian pituitary, the “Potency in releasing gonadotropin from mammalian pituitary compared to mammalian based GnRH analogs” value is reported as “significantly lower potency”. Also, the Kd in experiment [4] (setting [6]) was found to be 179 nM; in experiment [2] (setting [6]), 1560 nM; in experiment [3] (setting [6]) it was 7140 nM. The “Suppression of HepG2 growth ED50” value with HepG2 cells is reported as 7.55 nM. Also, the “Effect on HepG2 cell proliferation” value with HepG2 cells is “suppressed”.
Met Enkephalin [Met-Enkephalin]: the entries for the “Displacement / competitive inhibition of labeled [D-Lys6]-GnRH binding to HepG2 membrane preparation” value in experiment [1] and in experiment [1] (listed as Met Enkephalin) were “did not show competitive inhibition” and “did not displace”, respectively. Further, in experiment [3], the “Displacement / competitive inhibition of labeled [D-Lys6]-GnRH binding to non-cancerous human liver membrane preparation” value is given as “did not displace”.
Consider “α-melanocyte stimulating hormone [α-MSH, reference compound]”, for which the “Displacement / competitive inhibition of labeled [D-Lys6]-GnRH binding to HepG2 membrane preparation” value in experiment [1] was “did not displace; also recorded: did not show competitive inhibition”. The “Effect on HepG2 cell proliferation” value with HepG2 cells is recorded as “lack of effect; also recorded: did not”. In experiment [3], the “Displacement / competitive inhibition of labeled [D-Lys6]-GnRH binding to non-cancerous human liver membrane preparation” value is “did not displace”.
